Data set [1] deals with Corn. In words: Greenhouse study for weed control, corn. In kind it is in vivo. To be noted: Glyphosate 0.375 lb/acre; AMS 17 lb/100 gal; NIS, AQ 284, AQ 268 […] v/v; INTERLOCK 4 fl oz/acre. Here is the method:
(§1) A greenhouse study was conducted to test the efficacy of the AQ 284 combination water conditioning adjuvant and drift reduction composition compared to the commercial standard (INTERLOCK). Greenhouse research was conducted with individual plants growing in 3×3×3 inch pots. Greenhouse treatments were applied with a track sprayer using an 8002 E single nozzle applying 20 gpa.

Data set [2] deals with Sunflower. Put plainly: Greenhouse study for weed control, sunflower. The class given is in vivo. To be noted: Glyphosate 0.375 lb/acre; AMS 17 lb/100 gal; NIS, AQ 284, AQ 268 […] v/v; INTERLOCK 4 fl oz/acre. As for the experimental part:
as §1

For data set [3], the system named is Wheat. In words: Greenhouse study for weed control, wheat. The settings on record: Glyphosate 0.375 lb/acre; AMS 17 lb/100 gal; NIS, AQ 284, AQ 268 […] v/v; INTERLOCK 4 fl oz/acre. The class given is in vivo. As for the experimental part: as §1
Data set [4] has as its system Corn, Sunflower, Wheat. Put plainly: Greenhouse study for weed control, average of corn, sunflower and wheat. The settings on record: Glyphosate 0.375 lb/acre; AMS 17 lb/100 gal; NIS, AQ 284, AQ 268 […] v/v; INTERLOCK 4 fl oz/acre. In kind it is in vivo. Here is the method:
as §1

Data set [5] is described as follows: Lecithin addition to sulfuric acid, urea sulfate and AQ 216 (lecithin stability). The class given is physicochemical. The settings on record: for Notes (result of lecithin addition): on addition. An excerpt:
Lecithin is known to be unstable in a sulfuric acid environment. […] For each reaction with urea sulfate and AQ 216, the urea sulfate was mixed thoroughly or AQ 216 was mixed thoroughly, before the addition of the lecithin composition.

The mark [6] stands for this setting: lecithin composition AIRLINK 50 mL.
Where [7] appears, read: lecithin composition LI 700 50 mL.
The mark [8] stands for this setting: lecithin composition LIBERATE 50 mL.

SMILES strings stand for the structures.

On to `O=C(O)CNCP(=O)(O)O` [Glyphosate, N-phosphonomethylglycine], for which, in data set [1], the “Corn % Control 18 Days After Application” value is 10.0%. In addition, in data set [2], the “Sunflower % Control 18 Days After Application” value was 15.0%. Further, the “Wheat % Control 18 Days After Application” value in data set [3] was determined as 15.0%. Also, in data set [4], the “Average % Control 18 Days After Application” value came to 13.3%.
For the compound `O=S(=O)(O)O` [Sulfuric Acid], in data set [5] (50 mL of each of the lecithin compositions, equivalent amount of sulfuric acid (3 mL)), the “reaction with lecithin compositions” value is “forming a precipitate”. The “Time 1 hour” value in data set [5] (setting [6]), in data set [5] (setting [7]) and in data set [5] (setting [8]) was “More precipitate” each time. Further, the “Time 12 Hours” value in data set [5] (setting [6]), in data set [5] (setting [7]) and in data set [5] (setting [8]) was “More precipitate” in each case. Also, the “Notes (result of lecithin addition)” value is “Dark Precipitate” in data set [5] (lecithin composition AIRLINK 50 mL, 3 mL sulfuric acid or 6 mL urea sulfate / AQ 216); “Dark Precipitate” in data set [5] (setting [7]); “Dark Precipitate” in data set [5] (setting [8]).

The values are drawn from patent publication US20260083125A1, “METHODS FOR MANAGING HERBICIDE VAPORIZATION” (AgQuam R&D, LLC, priority 2016, published 2026).
